Results reported in ChEMBL document CHEMBL4507316 (2021).
Activity calls are given as the source filed them. The calls are words filed in the database; no cut-off is given here.

Tests used:
[1] = target: Macrophage-stimulating protein receptor (Homo sapiens) (UniProt Q04912); experiment: RON ProQinase selectivity panel; settings: Compound concentration 1.0 uM
[2] = target: Sodium-dependent noradrenaline transporter (Homo sapiens) (UniProt P23975); settings: Compound concentration 10.0 uM
[3] = target: Testis-specific serine/threonine-protein kinase 1 (Homo sapiens) (UniProt Q9BXA7); experiment: TSSK1 ProQinase selectivity panel; settings: Compound concentration 1.0 uM
[4] = target: Serine/threonine-protein kinase MARK2 (Homo sapiens) (UniProt Q7KZI7); experiment: MARK2 ProQinase selectivity panel; settings: Compound concentration 1.0 uM
[5] = target: G protein-coupled receptor kinase 4 (Homo sapiens) (UniProt P32298); experiment: GRK4 ProQinase selectivity panel; settings: Compound concentration 1.0 uM
[6] = target: Serine/threonine-protein kinase Sgk1 (Homo sapiens) (UniProt O00141); experiment: SGK1 ProQinase selectivity panel; settings: Compound concentration 1.0 uM
[7] = system: Proto-oncogene tyrosine-protein kinase receptor Ret (Homo sapiens), P07949 [V804L]; experiment: RET V804L ProQinase selectivity panel; settings: Compound concentration 1.0 uM
[8] = target: Mitogen-activated protein kinase kinase kinase 9 (Homo sapiens) (UniProt P80192); experiment: MAP3K9 ProQinase selectivity panel; settings: Compound concentration 1.0 uM
[9] = system: RAF proto-oncogene serine/threonine-protein kinase (Homo sapiens), P04049 [Y340D,Y341D]; experiment: RAF1 Y340D/Y341D ProQinase selectivity panel; settings: Compound concentration 1.0 uM
[10] = target: G protein-coupled receptor kinase 3 (Homo sapiens) (UniProt P35626); experiment: GRK3 ProQinase selectivity panel; settings: Compound concentration 1.0 uM
[11] = target: Fibroblast growth factor receptor 1 (Homo sapiens) (UniProt P11362); experiment: FGF-R1 wt ProQinase selectivity panel; settings: Compound concentration 1.0 uM
[12] = target: Cytoplasmic tyrosine-protein kinase BMX (Homo sapiens) (UniProt P51813); experiment: BMX ProQinase selectivity panel; settings: Compound concentration 1.0 uM
[13] = target: D(4) dopamine receptor (Homo sapiens) (UniProt P21917); settings: Compound concentration 10.0 uM
[14] = target: Beta-adrenergic receptor kinase 1 (Homo sapiens) (UniProt P25098); experiment: GRK2 ProQinase selectivity panel; settings: Compound concentration 1.0 uM
[15] = target: Mitogen-activated protein kinase kinase kinase 5 (Homo sapiens) (UniProt Q99683); experiment: ASK1 ProQinase selectivity panel; settings: Compound concentration 1.0 uM
[16] = target: Serine/threonine-protein kinase PAK 5 (Homo sapiens) (UniProt Q9P286); experiment: PAK7 ProQinase selectivity panel; settings: Compound concentration 1.0 uM
[17] = target: Heat shock protein beta-1 (Homo sapiens, UniProt P04792); experiment: Inhibition of HSP27 (Ser82) (Western blot)
[18] = target: Serine/threonine-protein kinase PAK 6 (Homo sapiens) (UniProt Q9NQU5); experiment: PAK6 ProQinase selectivity panel; settings: Compound concentration 1.0 uM
[19] = target: Vascular endothelial growth factor receptor 3 (Homo sapiens) (UniProt P35916); experiment: VEGF-R3 ProQinase selectivity panel; settings: Compound concentration 1.0 uM
[20] = target: Sigma intracellular receptor 2 (Homo sapiens, UniProt Q5BJF2); settings: Compound concentration 10.0 uM
[21] = target: G protein-coupled receptor kinase 6 (Homo sapiens) (UniProt P43250); experiment: GRK6 ProQinase selectivity panel; settings: Compound concentration 1.0 uM
[22] = target: Serine/threonine-protein kinase PAK 3 (Homo sapiens) (UniProt O75914); experiment: PAK3 ProQinase selectivity panel; settings: Compound concentration 1.0 uM
[23] = target: Casein kinase I isoform alpha (Homo sapiens) (UniProt P48729); experiment: CK1-alpha1 ProQinase selectivity panel; settings: Compound concentration 1.0 uM
[24] = target: Dual specificity tyrosine-phosphorylation-regulated kinase 1B (Homo sapiens) (UniProt Q9Y463); experiment: DYRK1B ProQinase selectivity panel; settings: Compound concentration 1.0 uM
[25] = target: Casein kinase II subunit alpha' (Homo sapiens) (UniProt P19784); experiment: CK2-alpha2 ProQinase selectivity panel; settings: Compound concentration 1.0 uM
[26] = target: Mitogen-activated protein kinase 3 (Homo sapiens) (UniProt P27361); experiment: ERK1 ProQinase selectivity panel; settings: Compound concentration 1.0 uM
[27] = target: Tyrosine-protein kinase JAK2 (Homo sapiens) (UniProt O60674); experiment: JAK2 ProQinase selectivity panel; settings: Compound concentration 1.0 uM
[28] = target: Dual specificity protein kinase CLK1 (Homo sapiens) (UniProt P49759); experiment: CLK1 ProQinase selectivity panel; settings: Compound concentration 1.0 uM
[29] = target: CDK7/Cyclin H/MNAT1 (Homo sapiens) (UniProt P51946+P50613+P51948); experiment: CDK7/CycH/MAT1 ProQinase selectivity panel; type: protein-complex assay; settings: Compound concentration 1.0 uM
[30] = target: Alpha-2C adrenergic receptor (Homo sapiens) (UniProt P18825); settings: Compound concentration 10.0 uM
[31] = target: Serine/threonine-protein kinase pim-1 (Homo sapiens) (UniProt P11309); experiment: PIM1 ProQinase selectivity panel; settings: Compound concentration 1.0 uM
[32] = target: 5-hydroxytryptamine receptor 5A (Homo sapiens) (UniProt P47898); settings: Compound concentration 10.0 uM
[33] = target: MAP kinase-activated protein kinase 5 (Homo sapiens) (UniProt Q8IW41); experiment: MAPKAPK5 ProQinase selectivity panel; settings: Compound concentration 1.0 uM
[34] = target: Phosphorylase b kinase gamma catalytic chain, liver/testis isoform (Homo sapiens) (UniProt P15735); experiment: PHKG2 ProQinase selectivity panel; settings: Compound concentration 1.0 uM
[35] = target: Interleukin-1 receptor-associated kinase 4 (Homo sapiens) (UniProt Q9NWZ3); experiment: IRAK4 ProQinase selectivity panel; settings: Compound concentration 1.0 uM
[36] = target: Serine/threonine-protein kinase Nek6 (Homo sapiens) (UniProt Q9HC98); experiment: NEK6 ProQinase selectivity panel; settings: Compound concentration 1.0 uM
[37] = target: STE20/SPS1-related proline-alanine-rich protein kinase (Homo sapiens) (UniProt Q9UEW8); experiment: STK39 ProQinase selectivity panel; settings: Compound concentration 1.0 uM
[38] = target: Proto-oncogene tyrosine-protein kinase receptor Ret (Homo sapiens) (UniProt P07949); experiment: RET wt ProQinase selectivity panel; settings: Compound concentration 1.0 uM
[39] = target: Cyclin-dependent kinase 1/cyclin B (Homo sapiens) (UniProt P06493+P14635+Q8WWL7+O95067); experiment: CDK1/CycB1 ProQinase selectivity panel; type: protein-complex assay; settings: Compound concentration 1.0 uM
[40] = target: Discoidin domain-containing receptor 2 (Homo sapiens) (UniProt Q16832); experiment: DDR2 ProQinase selectivity panel; settings: Compound concentration 1.0 uM
[41] = target: G protein-coupled receptor kinase 5 (Homo sapiens) (UniProt P34947); experiment: GRK5 ProQinase selectivity panel; settings: Compound concentration 1.0 uM
[42] = target: Ribosomal protein S6 kinase alpha-6 (Homo sapiens) (UniProt Q9UK32); experiment: RPS6KA6 ProQinase selectivity panel; settings: Compound concentration 1.0 uM
[43] = system: Receptor-type tyrosine-protein kinase FLT3 (Homo sapiens), P36888 [UNDEFINED MUTATION]; experiment: FLT3 ITD ProQinase selectivity panel; settings: Compound concentration 1.0 uM
[44] = target: Death-associated protein kinase 2 (Homo sapiens) (UniProt Q9UIK4); experiment: DAPK2 ProQinase selectivity panel; settings: Compound concentration 1.0 uM
[45] = target: Tyrosine-protein kinase receptor TYRO3 (Homo sapiens) (UniProt Q06418); experiment: TYRO3 ProQinase selectivity panel; settings: Compound concentration 1.0 uM
[46] = target: Mitogen-activated protein kinase 12 (Homo sapiens) (UniProt P53778); experiment: p38-gamma ProQinase selectivity panel; settings: Compound concentration 1.0 uM
[47] = system: Serine/threonine-protein kinase B-raf (Homo sapiens), P15056 [V600E]; experiment: B-RAF V600E ProQinase selectivity panel; settings: Compound concentration 1.0 uM
[48] = target: Serine/threonine-protein kinase haspin (Homo sapiens) (UniProt Q8TF76); experiment: GSG2 ProQinase selectivity panel; settings: Compound concentration 1.0 uM

5-hydroxytryptamine receptor 5A (Homo sapiens), sequence (P47898 whole entry): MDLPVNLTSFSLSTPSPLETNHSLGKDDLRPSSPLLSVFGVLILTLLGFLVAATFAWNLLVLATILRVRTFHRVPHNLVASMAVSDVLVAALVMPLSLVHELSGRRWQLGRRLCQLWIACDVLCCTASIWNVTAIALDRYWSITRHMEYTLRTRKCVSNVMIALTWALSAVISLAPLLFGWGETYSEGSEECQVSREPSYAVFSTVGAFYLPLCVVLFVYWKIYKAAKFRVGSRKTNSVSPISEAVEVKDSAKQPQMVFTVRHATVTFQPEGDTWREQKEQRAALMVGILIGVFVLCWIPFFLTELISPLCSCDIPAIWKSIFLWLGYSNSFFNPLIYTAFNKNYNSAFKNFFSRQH
Casein kinase II subunit alpha' (Homo sapiens), sequence (P19784 whole entry, looked up): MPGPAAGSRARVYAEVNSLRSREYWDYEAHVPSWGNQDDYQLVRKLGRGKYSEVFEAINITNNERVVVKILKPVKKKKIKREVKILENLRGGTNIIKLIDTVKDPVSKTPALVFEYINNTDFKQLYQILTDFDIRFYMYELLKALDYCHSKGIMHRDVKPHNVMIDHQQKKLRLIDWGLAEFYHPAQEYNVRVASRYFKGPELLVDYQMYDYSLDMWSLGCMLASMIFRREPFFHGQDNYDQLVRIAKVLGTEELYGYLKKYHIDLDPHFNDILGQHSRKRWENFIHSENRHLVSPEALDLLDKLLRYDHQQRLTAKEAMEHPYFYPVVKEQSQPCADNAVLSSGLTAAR
Serine/threonine-protein kinase MARK2 (Homo sapiens), sequence (Q7KZI7 whole entry): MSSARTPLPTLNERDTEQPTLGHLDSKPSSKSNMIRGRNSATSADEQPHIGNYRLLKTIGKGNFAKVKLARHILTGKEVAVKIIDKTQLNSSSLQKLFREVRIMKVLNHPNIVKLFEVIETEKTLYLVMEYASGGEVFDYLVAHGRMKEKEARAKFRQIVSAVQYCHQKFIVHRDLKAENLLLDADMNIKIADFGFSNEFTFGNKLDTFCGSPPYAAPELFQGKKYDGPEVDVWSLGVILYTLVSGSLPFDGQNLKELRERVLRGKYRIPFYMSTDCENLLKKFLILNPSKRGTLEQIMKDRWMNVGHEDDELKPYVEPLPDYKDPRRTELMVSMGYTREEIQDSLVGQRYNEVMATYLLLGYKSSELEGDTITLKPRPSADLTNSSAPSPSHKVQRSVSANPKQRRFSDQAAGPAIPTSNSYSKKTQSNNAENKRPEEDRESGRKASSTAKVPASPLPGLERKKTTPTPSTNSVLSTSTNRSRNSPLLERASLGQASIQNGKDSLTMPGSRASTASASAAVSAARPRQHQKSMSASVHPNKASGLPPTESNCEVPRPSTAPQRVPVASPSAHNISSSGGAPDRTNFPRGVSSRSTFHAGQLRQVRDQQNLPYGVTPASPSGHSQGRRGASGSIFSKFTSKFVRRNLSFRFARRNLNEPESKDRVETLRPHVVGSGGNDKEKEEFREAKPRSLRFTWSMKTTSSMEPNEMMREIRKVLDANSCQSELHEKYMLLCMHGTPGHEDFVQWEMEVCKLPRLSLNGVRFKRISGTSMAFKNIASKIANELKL
G protein-coupled receptor kinase 3 (Homo sapiens), sequence (P35626 whole entry): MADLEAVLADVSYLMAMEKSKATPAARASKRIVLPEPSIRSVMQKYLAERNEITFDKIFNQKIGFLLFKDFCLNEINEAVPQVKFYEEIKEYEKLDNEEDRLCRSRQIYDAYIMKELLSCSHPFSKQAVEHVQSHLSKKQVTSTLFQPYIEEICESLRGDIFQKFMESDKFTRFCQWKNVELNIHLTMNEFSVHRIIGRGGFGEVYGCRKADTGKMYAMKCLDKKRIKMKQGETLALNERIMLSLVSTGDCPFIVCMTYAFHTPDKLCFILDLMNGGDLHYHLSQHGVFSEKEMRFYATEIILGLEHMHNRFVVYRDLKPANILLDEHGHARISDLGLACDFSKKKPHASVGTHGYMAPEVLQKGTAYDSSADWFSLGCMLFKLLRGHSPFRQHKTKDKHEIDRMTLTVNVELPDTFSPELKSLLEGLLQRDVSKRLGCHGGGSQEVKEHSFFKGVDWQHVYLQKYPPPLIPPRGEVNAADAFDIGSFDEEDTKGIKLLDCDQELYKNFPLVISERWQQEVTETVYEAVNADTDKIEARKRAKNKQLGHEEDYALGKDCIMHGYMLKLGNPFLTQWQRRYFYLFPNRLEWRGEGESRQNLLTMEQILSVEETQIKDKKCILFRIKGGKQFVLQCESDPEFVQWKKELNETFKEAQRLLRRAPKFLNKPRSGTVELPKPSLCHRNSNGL
Heat shock protein beta-1, sequence (P04792 whole entry): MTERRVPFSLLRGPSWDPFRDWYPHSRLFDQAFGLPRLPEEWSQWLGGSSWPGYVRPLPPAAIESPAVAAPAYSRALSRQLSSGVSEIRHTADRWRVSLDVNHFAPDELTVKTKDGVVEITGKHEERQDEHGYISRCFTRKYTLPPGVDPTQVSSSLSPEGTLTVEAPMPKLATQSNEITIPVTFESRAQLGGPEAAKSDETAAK
Cytoplasmic tyrosine-protein kinase BMX (Homo sapiens), sequence (P51813 whole entry): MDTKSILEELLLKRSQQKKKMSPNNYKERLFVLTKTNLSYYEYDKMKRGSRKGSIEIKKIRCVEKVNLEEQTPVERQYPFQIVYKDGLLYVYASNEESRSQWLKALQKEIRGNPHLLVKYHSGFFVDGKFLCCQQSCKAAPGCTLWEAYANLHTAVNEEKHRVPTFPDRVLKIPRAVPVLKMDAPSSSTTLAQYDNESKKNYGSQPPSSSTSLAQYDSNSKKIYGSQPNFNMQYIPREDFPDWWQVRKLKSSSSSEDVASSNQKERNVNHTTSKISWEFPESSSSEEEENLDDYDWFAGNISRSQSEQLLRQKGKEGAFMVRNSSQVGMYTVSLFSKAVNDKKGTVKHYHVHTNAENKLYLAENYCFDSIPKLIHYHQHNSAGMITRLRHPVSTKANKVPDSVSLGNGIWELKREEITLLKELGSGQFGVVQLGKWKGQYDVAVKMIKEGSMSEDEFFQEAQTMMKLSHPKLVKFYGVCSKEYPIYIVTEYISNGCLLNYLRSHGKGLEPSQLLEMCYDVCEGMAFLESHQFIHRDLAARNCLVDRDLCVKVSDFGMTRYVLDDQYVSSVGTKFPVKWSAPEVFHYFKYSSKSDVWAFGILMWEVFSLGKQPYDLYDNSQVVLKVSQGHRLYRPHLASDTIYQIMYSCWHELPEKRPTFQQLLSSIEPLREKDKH
RAF proto-oncogene serine/threonine-protein kinase (Homo sapiens), P04049 [Y340D,Y341D], sequence (P04049 whole entry Y340D/Y341D): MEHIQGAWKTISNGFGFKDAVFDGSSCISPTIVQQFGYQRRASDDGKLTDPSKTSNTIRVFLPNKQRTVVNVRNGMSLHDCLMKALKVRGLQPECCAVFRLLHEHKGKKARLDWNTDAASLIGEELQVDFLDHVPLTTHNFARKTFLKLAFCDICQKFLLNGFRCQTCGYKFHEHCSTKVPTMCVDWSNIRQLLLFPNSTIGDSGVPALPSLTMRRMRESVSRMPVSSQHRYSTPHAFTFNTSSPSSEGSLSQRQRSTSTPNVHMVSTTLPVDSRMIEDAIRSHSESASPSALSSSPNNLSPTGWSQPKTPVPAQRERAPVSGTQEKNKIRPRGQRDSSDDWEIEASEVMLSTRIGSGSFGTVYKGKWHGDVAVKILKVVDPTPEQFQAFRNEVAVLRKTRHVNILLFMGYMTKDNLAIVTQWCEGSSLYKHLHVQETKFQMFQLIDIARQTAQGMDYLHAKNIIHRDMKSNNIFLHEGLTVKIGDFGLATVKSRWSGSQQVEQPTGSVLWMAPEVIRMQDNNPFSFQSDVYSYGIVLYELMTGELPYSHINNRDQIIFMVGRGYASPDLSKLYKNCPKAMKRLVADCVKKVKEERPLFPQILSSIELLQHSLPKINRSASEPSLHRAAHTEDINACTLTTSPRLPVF
Serine/threonine-protein kinase PAK 5 (Homo sapiens), sequence (Q9P286 whole entry, looked up): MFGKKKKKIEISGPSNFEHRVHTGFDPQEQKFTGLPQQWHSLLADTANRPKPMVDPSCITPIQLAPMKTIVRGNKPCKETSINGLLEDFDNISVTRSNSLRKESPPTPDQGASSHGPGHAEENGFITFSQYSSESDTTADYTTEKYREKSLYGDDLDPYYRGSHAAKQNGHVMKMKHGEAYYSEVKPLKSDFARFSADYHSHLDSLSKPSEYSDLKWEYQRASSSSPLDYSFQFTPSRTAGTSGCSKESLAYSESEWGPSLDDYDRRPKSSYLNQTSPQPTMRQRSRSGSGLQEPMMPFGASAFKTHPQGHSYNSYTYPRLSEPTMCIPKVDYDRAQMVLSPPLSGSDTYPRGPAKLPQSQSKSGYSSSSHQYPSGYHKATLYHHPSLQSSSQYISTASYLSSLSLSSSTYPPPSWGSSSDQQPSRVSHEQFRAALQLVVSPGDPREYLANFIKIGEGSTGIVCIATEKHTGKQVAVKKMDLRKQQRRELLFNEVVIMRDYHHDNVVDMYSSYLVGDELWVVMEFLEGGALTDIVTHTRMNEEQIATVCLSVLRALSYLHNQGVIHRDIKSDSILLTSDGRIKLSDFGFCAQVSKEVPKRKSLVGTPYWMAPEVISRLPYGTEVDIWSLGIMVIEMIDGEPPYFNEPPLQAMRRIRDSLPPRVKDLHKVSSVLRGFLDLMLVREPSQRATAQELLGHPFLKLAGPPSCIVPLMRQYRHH
Mitogen-activated protein kinase 12 (Homo sapiens), sequence (P53778 whole entry): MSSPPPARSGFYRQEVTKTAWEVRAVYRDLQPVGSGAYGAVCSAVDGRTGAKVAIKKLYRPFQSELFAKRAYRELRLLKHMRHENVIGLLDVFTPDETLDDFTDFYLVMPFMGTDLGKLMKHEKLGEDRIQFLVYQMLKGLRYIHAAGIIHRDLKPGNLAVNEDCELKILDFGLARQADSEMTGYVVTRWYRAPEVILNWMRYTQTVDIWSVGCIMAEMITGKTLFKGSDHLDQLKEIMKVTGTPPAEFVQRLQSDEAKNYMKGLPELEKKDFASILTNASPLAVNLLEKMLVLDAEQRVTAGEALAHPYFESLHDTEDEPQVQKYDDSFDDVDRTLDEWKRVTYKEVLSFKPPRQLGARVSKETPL
Sigma intracellular receptor 2, sequence (Q5BJF2 whole entry): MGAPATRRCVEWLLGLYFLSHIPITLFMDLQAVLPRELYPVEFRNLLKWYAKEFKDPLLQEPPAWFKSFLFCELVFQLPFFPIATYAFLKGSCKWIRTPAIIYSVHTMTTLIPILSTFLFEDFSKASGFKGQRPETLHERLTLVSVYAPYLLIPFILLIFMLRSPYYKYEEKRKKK

## O=C1c2ccc(Nc3ccc(F)cc3F)cc2CCc2ccc(OC[C@H](O)CO)cc21 [Skepinone-L]
[1]
  % Residual activity with Skepinone-L: 56%
[2]
  inhibition: 29.4%
[3]
  % Residual activity with Skepinone-L: 90%
[4]
  % Residual activity with Skepinone-L: 105%
[5]
  % Residual activity with Skepinone-L: 100%
[6]
  % Residual activity with Skepinone-L: 90%
[7]
  % Residual activity with Skepinone-L: 115%
[8]
  % Residual activity with Skepinone-L: 90%
[9]
  % Residual activity with Skepinone-L: 91%
[10]
  % Residual activity with Skepinone-L: 95%
[11]
  % Residual activity with Skepinone-L: 117%
[12]
  % Residual activity with Skepinone-L: 108%
[13]
  inhibition: 9.38%
[14]
  % Residual activity with Skepinone-L: 83%
[15]
  % Residual activity with Skepinone-L: 103%
[16]
  % Residual activity with Skepinone-L: 87%
[17]
  IC50: 25 nM (active)
[18]
  % Residual activity with Skepinone-L: 101%
[19]
  % Residual activity with Skepinone-L: 100%
[20]
  inhibition: 53.1%
[21]
  % Residual activity with Skepinone-L: 82%
[22]
  % Residual activity with Skepinone-L: 107%
[23]
  % Residual activity with Skepinone-L: 97%
[24]
  % Residual activity with Skepinone-L: 102%
[25]
  % Residual activity with Skepinone-L: 87%
[26]
  % Residual activity with Skepinone-L: 99%
[27]
  % Residual activity with Skepinone-L: 90%
[28]
  % Residual activity with Skepinone-L: 106%
[29]
  % Residual activity with Skepinone-L: 107%
[30]
  inhibition: 10.8%
[31]
  % Residual activity with Skepinone-L: 105%
[32]
  inhibition: 13.8%
[33]
  % Residual activity with Skepinone-L: 97%
[34]
  % Residual activity with Skepinone-L: 73%
[35]
  % Residual activity with Skepinone-L: 104%
[36]
  % Residual activity with Skepinone-L: 97%
[37]
  % Residual activity with Skepinone-L: 53%
[38]
  % Residual activity with Skepinone-L: 102%
[39]
  % Residual activity with Skepinone-L: 83%
[40]
  % Residual activity with Skepinone-L: 102%
[41]
  % Residual activity with Skepinone-L: 121%
[42]
  % Residual activity with Skepinone-L: 85%
[43]
  % Residual activity with Skepinone-L: 101%
[44]
  % Residual activity with Skepinone-L: 88%
[45]
  % Residual activity with Skepinone-L: 108%
[46]
  % Residual activity with Skepinone-L: 102%
[47]
  % Residual activity with Skepinone-L: 135%
[48]
  % Residual activity with Skepinone-L: 82%
